# According to patent US20080254490A1, “Salivary Protease Assays for Identifying Increased Risk of Preterm Delivery Induced by Premature Rupture of Fetal Membranes” (priority 2005, published 2008):
# Tests used:
# [1] = system: sheddases, proteinases of the ADAM family; settings: cited from earlier work
# [2] = system: metalloproteinase activity in human saliva samples; assay: Proteinase activity assay in saliva with DQ-gelatin (fluorometry); format: biochemical; settings: compared with BB-94
# Procedure: Proteinase activity assay: Total proteolytic activity in saliva samples was measured by fluorometry using the generic substrate DQ-gelatin (Molecular Probes Inc). An aliquot (usually 50 μl per 160 μl total assay volume) of each sample was mixed with substrate (10 μg/ml) in tricine buffer (50 mM Tricine, pH 7.4; 200 mM NaCl; 10 mM CaCl2; 0.05 mM ZnSO4; 0.005% Brij 35) and incubated at 37° C. An inhibitor cocktail comprising of inhibitors of serine, cysteine and aspartyl proteinases (‘Complete—EDTA free’, Roche Biochemicals, San Diego, Calif.) was included in the reactions for all the human saliva samples. Fluorometric measurements (excitation at 485 nm and emission at 538 nm) recorded every 10-20 minutes for 2 hours. These values were used to calculate an initial rate of enzyme activity (Fluorescence units/minute) which, for the murine samples, was then normalized for amylase concentration. To measure non-metalloproteinase activity, EDTA at a concentration of 30 mM was included in the assay mixture. Metalloproteinase (MP) activity was then determined as total less the EDTA-inhibited activity. Similarly, matrix metalloproteinase (MMP) activity, defined as the BB-94-inhibitible activity, was determined by subtracting the activity in the presence of BB-94 (25 μM) from total proteinase activity. […]
# [3] = system: MMP9 specific bands (gelatinolytic activity) in saliva; settings: control gels treated with EDTA
# Procedure: Zymography: 20 μl of each saliva sample was mixed with 5 μl of a sample buffer containing 250 mM Tris pH 6.8, 25% glycerol, 10% (w/v) SDS, 0.01% bromophenol blue and loaded onto 10% SDS-PAGE gels containing 0.25% porcine gelatin (Sigma). Molecular weight markers (Biowhittaker Molecular Applications, Rockland, Me., USA) and a positive control sample of conditioned medium from the human fibrosarcoma cell line HT-1080 were also included on the gel. Following electrophoresis, the gels were washed twice for 15 mins each in 2.5% Triton X-100 and then incubated overnight at 37° C. in a substrate buffer containing 50 mM Tris-HCl, pH 7.6 and 10 mM CaCl2 in the absence or presence of proteinase inhibitors EDTA (30 mM), BB-94 (20 μM), BMS-275291 (20 μM) or B428 (20 μM). Following incubation, the gels were stained with a solution of 0.5% (w/v) Coomassie Blue R250 prepared in 50% methanol: 10% acetic acid. Once stained, the gels were briefly de-stained in the same solution without the Coomassie Blue and then stored in distilled water. Areas of gelatinolytic activity appeared cleared against the blue background of the coomassie-stained undigested gelatin.
structure (smiles),measurement,setting,value
CNC(=O)[C@H](Cc1ccccc1)NC(=O)[C@H](CC(C)C)[C@H](CSc1cccs1)C(=O)NO [BB-94],activity against sheddases,[1],activity against sheddases
CNC(=O)[C@@H](NC(=O)[C@H](CC(C)C)NC(=O)[C@@H](S)CCN1C(=O)N(C)C(C)(C)C1=O)C(C)(C)C [BMS-275291],inhibition of salivary metalloproteinase activity (DQ-gelatin cleavage),[2],results comparable to those with BB-94
O=C(O)CN(CCN(CC(=O)O)CC(=O)O)CC(=O)O [EDTA],gelatinolytic bands on zymography gels,[3],showed no bands
